According to patent US11419916B2, “Methods and compositions for inducing differentiation of human brown adipocyte progenitors” (Energesis Pharmaceuticals, Inc., priority 2014, dated 2022):
Structures can show the parent of a compound that is named as a salt.

B1: FGF13: fibroblast growth factor-13 (protein, UniProt Q92913 1-245, looked up)
Fibroblast growth factor 13: MAAAIASSLIRQKRQAREREKSNACKCVSSPSKGKTSCDKNKLNVFSRVKLFGSKKRRRRRPEPQLKGIVTKLYSRQGYHLQLQADGTIDGTKDEDSTYTLFNLIPVGLRVVAIQGVQTKLYLAMNSEGYLYTSELFTPECKFKESVFENYYVTYSSMIYRQQQSGRGWYLGLNKEGEIMKGNHVKKNKPAAHFLPKPLKVAMYKEPSLHDLTEFSRSGSGTPTKSRSVSGVLNGGKSMSHNEST
B2: FGF7: fibroblast growth factor-7, keratinocyte growth factor (protein, UniProt P21781 32-194, looked up)
Fibroblast growth factor 7: CNDMTPEQMATNVNCSSPERHTRSYDYMEGGDIRVRRLFCRTQWYLRIDKRGKVKGTQEMKNNYNIMEIRTVAVGIVAIKGVESEFYLAMNKEGKLYAKKECNEDCNFKELILENHYNTYASAKWTHNGGEMFVALNQKGIPVRGKKTKKEQKTAHFLPMAIT
B3: BDNF: brain-derived neurotrophic factor (protein, UniProt P23560 19-247, looked up)
Neurotrophic factor BDNF …: APMKEANIRGQGGLAYPGVRTHGTLESVNGPKAGSRGLTSLADTFEHVIEELLDEDQKVRPNEENNKDADLYTSRVMLSSQVPLEPPLLFLLEEYKNYLDAANMSMRVRRHSDPARRGELSVCDSISEWVTAADKKTAVDMSGGTVTVLEKVPVSKGQLKQYFYETKCNPMGYTKEGCRGIDKRHWNSQCRTTQSYVRALTMDSKKRIGWRFIRIDTSCVCTLTIKRGR
B4: FGF10: fibroblast growth factor-10, keratinocyte growth factor-2 (protein, UniProt O15520 38-208, looked up)
Fibroblast growth factor 10: QALGQDMVSPEATNSSSSSFSSPSSAGRHVRSYNHLQGDVRWRKLFSFTKYFLKIEKNGKVSGTKKENCPYSILEITSVEIGVVAVKAINSNYYLAMNKKGKLYGSKEFNNDCKLKERIEENGYNTYASFNWQHNGRQMYVALNGKGAPRRGQKTRRKNTSAHFLPMVVHS
B5: CNTF: ciliary neurotrophic factor (protein, UniProt P26441 1-200, looked up)
Ciliary neurotrophic factor: MAFTEHSPLTPHRRDLCSRSIWLARKIRSDLTALTESYVKHQGLNKNINLDSADGMPVASTDQWSELTEAERLQENLQAYRTFHVLLARLLEDQQVHFTPTEGDFHQAIHTLLLQVAAFAYQIEELMILLEYKIPRNEADGMPINVGDGGLFEKKLWGLKVLQELSQWTVRSIHDLRFISSHQTGIPARGSHYIANNKKM

Each molecule was assayed on CD31-cells (BAT progenitor cells isolated from human skeletal muscle) (assay: Quantification of UCP1 and PPARγ2 mRNA (normalized to cyclophilin A) by multiplexed TaqMan real-time PCR to quantify differentiation into brown adipocytes). Conditions: not given.
Type: cell-based
Description: A robust method, previously disclosed in WO2013071063 and incorporated herein by reference, was used for detection of CD31-cell differentiation into brown adipocytes by simultaneously quantifying mRNA species corresponding to the brown adipocyte marker UCP1, the adipocyte marker PPARγ2, and the “housekeeping” gene cyclophilin A which was used as the internal control.
This method permits analysis of a large number of samples to identify agents that enhance the differentiation of CD31-cells into brown adipocytes. When differentiated into brown adipocytes CD31-cells express much higher levels of UCP1 and PPARγ2 mRNA for a given level of cyclophilin A. UCP1 and PPARγ2 mRNA levels normalized to cyclophilin A mRNA levels give an indication of the level of differentiation of the CD31-cells into brown adipocytes, independent of the total number of cells in the sample.
Quantification of UCP1, PPARγ2 and cyclophilin A mRNA by multiplexed TaqMan real-time PCR was thus used to quantify differentiation of the CD31-cells into brown adipocytes.
Cells were seeded at 10,000 per cm^2 in 0.2% gelatin coated plates (48-well tissue culture, Chemglass #CLS-3500-048), cultured until confluency (2-4 days) at 37° C. in Endothelial cell growth medium-2 (EGM2) (BulletKit growth medium, Lonza #CC-3162) and until differentiation (10-16 more days). After 2 or 3 days in EGM2 medium the cells were induced to differentiate by replacing the medium with an adipogenic medium, which is a modification of the adipogenic medium described by Rodriguez et al. and may or may not contain a differentiation inducing agent (e.g., PPARγ agonist). […] If rosiglitazone is used as a differentiation-inducing agent, it can be supplied at 1 μM or any other concentration sufficient to induce differentiation of BAT progenitor cells into adipocytes.
Total RNA was prepared from cells using PureLink RNA Isolation Kit (Invitrogen #12183-016) First strand cDNA were synthesized using the High Capacity cDNA Reverse Transcription kit (Applied Biosystems, Foster City, Calif.) and random primers.
Quantitative real-time PCR was performed using an Applied Biosystems StepOnePlus™ instrument, TaqMan Gene Expression Master Mix (Applied Biosystems #4369016), and custom TaqMan gene expression probes and primers for human uncoupling protein-1 “UCP1” (GenBank NM_021833) and for human peptidylprolyl isomerase A “cyclophilin A” (GenBank NM_021130).
Cyclophilin A was used as a control to account for any variations due to the efficiency of reverse transcription. Arbitrary units were determined by normalizing target mRNA levels to cyclophilin A mRNA levels (based on Cts).

Molecule	differentiation of BAT progenitor cells into brown adipocytes and/or expression of UCP1, PPARγ2 mRNA
PACAP Propeptide of 55 aa (aa 25-79): peptide derived from the Pituitary adenylate cyclase-activating polypeptide (PACAP, ADCYAP1, UniProt P18509) gene (SPAAAGLRFPGIRPEEEAYGEDGNPLPDFDGSEPPGAGSPASAPRAAAAWYRPAG; UniProt P18509 25-79, looked up, fragment)	promote the differentiation of BAT progenitor cells into brown adipocytes and/or induce the expression of UCP1
O=C1NC(c2cccc([N+](=O)[O-])c2)=CCN1c1ccccc1O [icilin]	promote the differentiation of BAT progenitor cells into brown adipocytes and/or induce the expression of UCP1
CN/C(=N\c1ccc(C2=NNC(=O)CC2C)cc1)NC#N (stereo not drawn) [siguazodan]	promote the differentiation of BAT progenitor cells into brown adipocytes and/or induce the expression of UCP1
CC1CCC(C(C)C)C(O)C1 (stereo not drawn) [menthol]	promote the differentiation of BAT progenitor cells into brown adipocytes and/or induce the expression of UCP1
interleukin-6 (IL-6): Interleukin-6, UniProt P05231	promote the differentiation of BAT progenitor cells into brown adipocytes and/or induce the expression of UCP1
COC(=O)N(C)c1c(N)nc(-c2nn(Cc3ccccc3F)c3ncccc23)nc1N [riociguat]	promote the differentiation of BAT progenitor cells into brown adipocytes and/or induce the expression of UCP1
CC1(C)CC[C@]2(C(=O)O)CC[C@]3(C)C(=CC[C@@H]4[C@@]5(C)CC[C@H](O)C(C)(C)[C@@H]5CC[C@]43C)[C@@H]2C1 [oleanolic acid]	promote the differentiation of BAT progenitor cells into brown adipocytes and/or induce the expression of UCP1
CCCCC[C@H](O)/C=C/[C@@H]1[C@@H](C/C=C\CCCC(=O)O)[C@H](O)C[C@H]1O [9β,11α-prostaglandin F2]	promote the differentiation of BAT progenitor cells into brown adipocytes and/or induce the expression of UCP1
bombesin	promote the differentiation of BAT progenitor cells into brown adipocytes and/or induce the expression of UCP1
COc1ccc(C2CNC(=O)C2)cc1OC1CCCC1 (stereo not drawn) [rolipram]	promote the differentiation of BAT progenitor cells into brown adipocytes and/or induce the expression of UCP1
BNP: b-type natriuretic peptide	promote the differentiation of BAT progenitor cells into brown adipocytes and/or induce the expression of UCP1
orexin B: orexin B	promote the differentiation of BAT progenitor cells into brown adipocytes and/or induce the expression of UCP1
B1	promote the differentiation of BAT progenitor cells into brown adipocytes and/or induce the expression of UCP1
B2	promote the differentiation of BAT progenitor cells into brown adipocytes and/or induce the expression of UCP1
B3	promote the differentiation of BAT progenitor cells into brown adipocytes and/or induce the expression of UCP1
B4	promote the differentiation of BAT progenitor cells into brown adipocytes and/or induce the expression of UCP1
B5	promote the differentiation of BAT progenitor cells into brown adipocytes and/or induce the expression of UCP1

The molecules below were run on CD31-cells (brown adipocyte progenitors) (assay: Quantification of UCP1 protein by immunohistochemistry (IHC)). Conditions: total intensity of UCP1 signal normalized to cell number.
Type: cell-based, human
Protocol: Differentiation of brown adipocyte progenitors into brown adipocytes can be detected through quantification of UCP1 protein by immunohistochemistry (IHC).
Culturing and differentiation of CD31-cells into brown adipocytes were performed using adipogenic differentiation medium lacking (Minimal Differentiation Medium, MDM) or containing 1 μM rosiglitazone (Reference Differentiation Medium, RDM). After 15 days of differentiation cells were fixed with 4% Paraformaldehyde PBS pH 7.4, and incubated with a UCP1 antibody (Abcam ab23841) and Alexafluor 488 goat anti-rabbit antibody to quantify relative UCP1 levels (green) according to standard protocols. Prior to fixation of cells, nuclei were labeled with 5 μM DAPI (blue) for 10 minutes. Each treatment condition was evaluated in triplicate in a 96-well plate corresponding to approximately 360-480 cells for each data point in total. The InCell 1000 Developer Toolbox software was used to develop an automated cell detection script to measure UCP1 signal intensity, using the nuclei and cytoplasm detection algorithms. As a readout, total intensity of UCP1 signal within the cell was used, normalized to cell number.

Molecule	UCP1 protein signal (IHC), differentiation of brown adipocyte progenitors into brown adipocytes
CCSc1ccc2c(c1)N(CCCN1CCN(C)CC1)c1ccccc1S2 [Thiethylperazine]	identified using this technique
COc1cc2c(c(OC)c1OC)-c1ccc(OC)c(=O)cc1[C@@H](NC(C)=O)CC2 [Colchicine]	identified using this technique
N=C(N)NC(=O)Cc1c(Cl)cccc1Cl [Guanfacine hydrochloride]	identified using this technique
NC(N)=Nc1nc(CSCCC(N)=NS(N)(=O)=O)cs1 [Famotidine]	identified using this technique
O=C(CCCN1CCC2(CC1)C(=O)NCN2c1ccccc1)c1ccc(F)cc1 [Spiperone]	identified using this technique
CN(C)C(=N)N=C(N)N [Metformin]	identified using this technique
COC(=O)[C@H]1[C@H]2C[C@@H]3c4[nH]c5cc(OC)ccc5c4CCN3C[C@H]2C[C@@H](OC(=O)c2cc(OC)c(OC)c(OC)c2)[C@@H]1OC [Reserpine]	identified using this technique
